Assay results taken from the supplement of paper PMC10820928.
± gives the standard deviation of the averaged measurements.

Test system: Danio rerio embryo
Experiment: benchmark concentration, MalformedAny+Mort@120 (percent of embryos dead or malformed at 120 hpf); higher = less toxic
Settings: exposure window: 4-6 to 120 hpf
Experimental: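 Single zebrafish embryos in 96-well plates (200 µL; 0.5% DMSO vehicle) were exposed from about 4–6 hpf to 120 hpf at 7 or more concentrations up to 100 µM or the solubility limit, one plate per replicate. Each lab used its in-house protocol: Lab A used AB embryos in E3 with chorion on and daily renewal; Lab B used Tropical 5D embryos in E2, dechorionated, static; Lab C used AB embryos in E3 with chorion on, static. The percentage of dead or malformed embryos at 120 hpf was fitted per plate (positive control: per week) by bootstrap Curvep to give a benchmark concentration (BMC); inactive substances are set to the highest tested concentration, BMCs at the lowest tested concentration are floors.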

[1] = laboratory protocol: Lab A: static renewal, chorionated (SR-C), AB strain, E3
[2] = laboratory protocol: Lab C: static, chorionated (S-C), AB strain, E3
[3] = laboratory protocol: Lab B: static, dechorionated (S-DC), Tropical 5D strain, E2

| SMILES | benchmark concentration [1] [µM] | benchmark concentration [2] [µM] | benchmark concentration [3] [µM] |
| --- | --- | --- | --- |
| CC(C)(C)[C@H](O)[C@H](Cc1ccc(Cl)cc1)n1cncn1 (racemic) [Paclobutrazol] | 0.339 ± 0.16 | 23.1 ± 21 |  |
| CC(C)(c1cc(Br)c(O)c(Br)c1)c1cc(Br)c(O)c(Br)c1 [3,3',5,5'-Tetrabromobisphenol A] | 1.39 | 4.25 ± 0.23 | 2.97 ± 0.81 |
| Nc1ccc(Cl)c(Cl)c1 [3,4-Dichloroaniline] | 7.8 ± 0.11 | 14 ± 4.4 | < 2 |
| CCCc1cc(=O)[nH]c(=S)[nH]1 [6-Propyl-2-thiouracil] | > 100 |  | > 100 |
| CC[C@H](C)[C@H]1O[C@]2(C=C[C@@H]1C)C[C@@H]1C[C@@H](C/C=C(\C)[C@@H](O[C@H]3C[C@H](OC)[C@@H](O[C@H]4C[C@H](OC)[C@@H](O)[C@H](C)O4)[C@H](C)O3)[C@@H](C)/C=C/C=C3\CO[C@@H]4[C@H](O)C(C)=C[C@@H](C(=O)O1)[C@]34O)O2.CO[C@H]1C[C@H](O[C@H]2[C@H](C)O[C@@H](O[C@@H]3/C(C)=C/C[C@@H]4C[C@@H](C[C@]5(C=C[C@H](C)[C@@H](C(C)C)O5)O4)OC(=O)[C@@H]4C=C(C)[C@@H](O)[C@H]5OC/C(=C\C=C\[C@@H]3C)[C@]54O)C[C@@H]2OC)O[C@@H](C)[C@@H]1O [Abamectin] |  | 0.436 ± 0.24 |  |
| CC=O [Acetaldehyde] | > 100 | > 100 | > 100 |
| CNC(=O)O/N=C/C(C)(C)SC [Aldicarb] | 0.926 ± 0.4 | 1.94 ± 0.48 | 2.27 ± 0.83 |
| CC(=O)Oc1ccccc1C(=O)O [Aspirin] |  | 24.6 ± 18 | > 100 |
| CCNc1nc(Cl)nc(NC(C)C)n1 [Atrazine] | 49 ± 5.9 | > 100 | > 100 |
| CCC[CH2][Sn]([CH2]CCC)([CH2]CCC)[O][Sn]([CH2]CCC)([CH2]CCC)[CH2]CCC [Bis(tributyltin)oxide] | 0.0463 ± 0.0031 | 1.08 ± 0.52 |  |
| CC(C)(c1ccc(O)cc1)c1ccc(O)cc1 [Bisphenol A] | 13 ± 2.4 | 21.8 ± 12 | 38.5 ± 2.8 |
| Cn1c(=O)c2c(ncn2C)n(C)c1=O [Caffeine] | > 100 |  | > 100 |
| CCOP(=O)(OCC)Oc1nc(Cl)c(Cl)cc1Cl [Chlorpyrifos oxon] |  | 0.2 ± 0.14 | 1.69 ± 0.43 |
| CCOP(=S)(OCC)Oc1nc(Cl)c(Cl)cc1Cl [Chlorpyrifos] | 0.879 ± 0.45 | 45.7 | 63.7 ± 35 |
| c1ccc2c(c1)ccc1cc3c(ccc4ccccc43)cc12 [Dibenz(a,h)anthracene] |  | > 100 | > 64 |
| CCCCOC(=O)c1ccccc1C(=O)OCCCC [Dibutyl phthalate] | 1.28 ± 0.24 | 38.2 ± 13 | 4.16 ± 0.31 |
| CC/C(=C(/CC)c1ccc(O)cc1)c1ccc(O)cc1 [Diethylstilbestrol] | 0.547 ± 0.03 | 3.37 ± 1.3 | 3.07 ± 0.69 |
| CCCCOC(=O)C(C)Oc1ccc(Oc2ccc(C(F)(F)F)cn2)cc1 (stereo not drawn) [Fluazifop-butyl] | 2.6 ± 1.5 | 53.8 ± 10 | 3.5 ± 1 |
| C[Si](Cn1cncn1)(c1ccc(F)cc1)c1ccc(F)cc1 [Flusilazole] | 1.41 ± 0.027 | 11.6 ± 5.1 | 6.04 ± 1.4 |

| SMILES | benchmark concentration [1] [µM] | benchmark concentration [2] [µM] | benchmark concentration [3] [µM] |
| --- | --- | --- | --- |
| NC(=O)NO [Hydroxyurea] | > 100 |  | > 100 |
| CC(C)NC(=O)N1CC(=O)N(c2cc(Cl)cc(Cl)c2)C1=O [Iprodione] | 11.7 ± 3.8 | 35.7 ± 18 | 62.3 ± 23 |
| Cl[C@H]1[C@H](Cl)[C@@H](Cl)[C@@H](Cl)[C@H](Cl)[C@H]1Cl [Lindane] | 1.24 ± 0.5 | 9.25 ± 4.2 | 35.6 ± 6.7 |
| CON(C)C(=O)Nc1ccc(Cl)c(Cl)c1 [Linuron] | 4.78 ± 0.21 | 29.7 ± 14 | 19.5 ± 9.7 |
| Oc1c(Cl)c(Cl)c(Cl)c(Cl)c1Cl [Pentachlorophenol] | 0.257 ± 0.15 | 0.818 ± 0.49 | < 1 |
| CCOP(=S)(OCC)SCSCC [Phorate] | 2.53 ± 1.7 |  | > 100 |
| CC(C)c1cccc(C(C)C)c1O [Propofol] | 0.502 ± 0.076 |  | > 100 |
| c1cc2ccc3cccc4ccc(c1)c2c34 [Pyrene] | 3.81 ± 1.2 |  | 50.5 ± 25 |
| CC(COc1ccc(Oc2ccccc2)cc1)Oc1ccccn1 (stereo not drawn) [Pyriproxyfen] | 4.41 ± 1.7 |  | 65.4 ± 16 |
| Oc1cccc(O)c1 [Resorcinol] | > 100 | > 100 | > 100 |
| C=C(C)[C@H]1Cc2c(ccc3c2O[C@@H]2COc4cc(OC)c(OC)cc4[C@@H]2C3=O)O1 [Rotenone] |  | 0.194 ± 0.15 | < 1 |
| CCCC(CCC)C(=O)O [Sodium valproate] |  | 4.12 | > 100 |
| O=C1CCC(N2C(=O)c3ccccc3C2=O)C(=O)N1 (stereo not drawn) [Thalidomide] | > 100 |  | > 100 |
| CC(C)(C)C(=O)C(Oc1ccc(Cl)cc1)n1cncn1 (stereo not drawn) [Triadimefon] | 1.51 ± 0.11 | 6.93 ± 6.8 | 7.61 ± 4.6 |
| Oc1cc(Cl)ccc1Oc1ccc(Cl)cc1Cl [Triclosan] | 1.2 ± 0.34 | 7.86 ± 5.5 | 3.62 ± 0.7 |
| O=P(Oc1ccccc1)(Oc1ccccc1)Oc1ccccc1 [Triphenyl phosphate] | 0.879 ± 0.45 | 30 ± 15 | 4.35 ± 0.61 |
| O=P(OC(CCl)CCl)(OC(CCl)CCl)OC(CCl)CCl [Tris(1,3-dichloro-2-propyl) phosphate] | 2.2 ± 0.24 | 15.9 ± 3.1 | 6.94 ± 2.6 |
| CCCC(CCC)C(=O)O [Valproic acid] |  | 6 ± 7.4 |  |
| CN(C)C(=S)[S-].CN(C)C(=S)[S-].[Zn+2] [Ziram] |  |  | < 1 |
